Reference: patent US10308643B2, “Heterocyclic compound” (Takeda Pharmaceutical Company Limited, priority 2015, dated 2019)

How the values were obtained:
Format in all cases: biochemical
[1] = biological target: T1, HDAC6 enzyme (Homo sapiens, UniProt Q9UBN7); experiment: HDAC1/6 Enzyme Inhibitory Assay (HDAC-Glo I/II Assay kit), HDAC6; details: 1 μM test compound; wells without enzyme = 100% inhibition; read-out: HDAC6 inhibitory rate (%) (1 μM)
T1 construct: transducing full length HDAC1 and HDAC6 genes into Sf-9 insect cells; GST; purchased SignalChem; host or cells: Sf-9 insect cells
T1 sequence (Q9UBN7 1-1215): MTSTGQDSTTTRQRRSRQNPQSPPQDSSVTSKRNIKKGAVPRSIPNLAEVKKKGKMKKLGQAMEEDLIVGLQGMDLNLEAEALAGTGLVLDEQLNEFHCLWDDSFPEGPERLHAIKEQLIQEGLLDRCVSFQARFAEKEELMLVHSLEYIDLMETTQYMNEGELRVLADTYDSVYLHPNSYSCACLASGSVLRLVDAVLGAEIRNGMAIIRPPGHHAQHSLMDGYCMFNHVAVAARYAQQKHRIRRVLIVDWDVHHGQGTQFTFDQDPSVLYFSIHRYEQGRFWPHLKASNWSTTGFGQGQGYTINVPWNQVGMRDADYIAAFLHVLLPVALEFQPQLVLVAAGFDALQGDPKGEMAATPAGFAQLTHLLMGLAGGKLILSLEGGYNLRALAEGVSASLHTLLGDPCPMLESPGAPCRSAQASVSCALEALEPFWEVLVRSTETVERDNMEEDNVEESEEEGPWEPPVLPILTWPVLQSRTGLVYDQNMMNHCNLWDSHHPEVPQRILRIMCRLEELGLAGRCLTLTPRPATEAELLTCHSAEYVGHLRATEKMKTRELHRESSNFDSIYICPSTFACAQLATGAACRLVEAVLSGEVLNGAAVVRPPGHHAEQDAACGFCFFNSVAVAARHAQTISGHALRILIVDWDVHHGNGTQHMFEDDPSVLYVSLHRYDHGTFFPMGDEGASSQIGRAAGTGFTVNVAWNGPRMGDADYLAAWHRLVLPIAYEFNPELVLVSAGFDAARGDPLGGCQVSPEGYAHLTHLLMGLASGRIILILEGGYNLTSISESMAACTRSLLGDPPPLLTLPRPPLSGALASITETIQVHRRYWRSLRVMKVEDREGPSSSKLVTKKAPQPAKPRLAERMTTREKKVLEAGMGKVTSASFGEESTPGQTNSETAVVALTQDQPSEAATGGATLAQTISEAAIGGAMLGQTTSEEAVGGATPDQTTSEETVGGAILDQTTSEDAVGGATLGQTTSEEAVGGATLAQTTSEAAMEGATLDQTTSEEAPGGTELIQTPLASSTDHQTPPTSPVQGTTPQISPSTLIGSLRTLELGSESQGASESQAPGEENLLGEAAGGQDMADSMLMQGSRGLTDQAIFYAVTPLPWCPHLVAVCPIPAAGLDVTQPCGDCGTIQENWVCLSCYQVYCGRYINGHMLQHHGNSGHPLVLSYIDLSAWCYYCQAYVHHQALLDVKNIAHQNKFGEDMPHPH
Outline: (§1)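 Full-length human HDAC1 or HDAC6, GST-purified from Sf-9 cells, was preincubated with compound for 60 min at room temperature in Tris-HCl pH 7.5 buffer with MgCl2, KCl, NaCl, glutathione and Tween-20. HDAC-Glo I/II substrate-developer was then added and reacted for 20 min before luminescence was read. Inhibition was set relative to no-enzyme wells as 100% inhibition.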

[2] = biological target: T2, HDAC1 enzyme (Homo sapiens, UniProt Q13547); experiment: HDAC1/6 Enzyme Inhibitory Assay (HDAC-Glo I/II Assay kit), HDAC1; details: 1 μM test compound, wells without enzyme = 100% inhibition; for inhibition at 1 µM: read-out: HDAC1 inhibitory rate (%) (1 μM)
T2 construct: transducing full length HDAC1 and HDAC6 genes into Sf-9 insect cells; GST; purchased SignalChem; host or cells: Sf-9 insect cells
Outline: as §1

[3] = biological target: T3, HDAC9 enzyme (Homo sapiens, UniProt Q9UKV0); experiment: HDAC9 Enzyme Inhibitory Assay (HDAC-Glo class IIa); details: 1 μM test compound; wells without enzyme = 100% inhibition; read-out: HDAC9 inhibitory rate (%) (1 μM)
T3 construct: transducing full length HDAC9 gene into Sf-9 insect cells; made in house; host or cells: Sf-9 insect cells
Outline: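 Luminescent HDAC-Glo class IIa readout after a 20 min room-temperature reaction; relative inhibition referenced to enzyme-free wells as 100%. Test compound first preincubated 60 min with Sf-9-expressed, Ni-NTA-purified full-length HDAC9 in pH 7.5 Tris buffer containing 135 mM NaCl, 0.6 mM glutathione and 0.01% Tween-20.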

T2 sequence (Q13547 whole entry): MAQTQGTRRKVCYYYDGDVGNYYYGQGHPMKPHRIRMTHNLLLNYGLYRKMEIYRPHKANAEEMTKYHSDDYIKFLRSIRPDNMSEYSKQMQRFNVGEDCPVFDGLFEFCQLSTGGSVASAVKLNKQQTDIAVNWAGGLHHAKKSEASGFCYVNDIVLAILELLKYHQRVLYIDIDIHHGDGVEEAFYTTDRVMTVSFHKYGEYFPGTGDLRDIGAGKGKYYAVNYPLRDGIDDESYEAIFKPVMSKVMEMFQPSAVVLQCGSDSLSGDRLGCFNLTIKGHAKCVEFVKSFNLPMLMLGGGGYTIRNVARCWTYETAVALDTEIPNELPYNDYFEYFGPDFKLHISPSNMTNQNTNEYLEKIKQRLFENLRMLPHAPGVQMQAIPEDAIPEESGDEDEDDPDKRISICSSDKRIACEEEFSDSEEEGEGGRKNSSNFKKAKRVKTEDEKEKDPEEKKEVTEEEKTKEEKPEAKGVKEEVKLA
T3 sequence (Q9UKV0 whole entry, species assumed): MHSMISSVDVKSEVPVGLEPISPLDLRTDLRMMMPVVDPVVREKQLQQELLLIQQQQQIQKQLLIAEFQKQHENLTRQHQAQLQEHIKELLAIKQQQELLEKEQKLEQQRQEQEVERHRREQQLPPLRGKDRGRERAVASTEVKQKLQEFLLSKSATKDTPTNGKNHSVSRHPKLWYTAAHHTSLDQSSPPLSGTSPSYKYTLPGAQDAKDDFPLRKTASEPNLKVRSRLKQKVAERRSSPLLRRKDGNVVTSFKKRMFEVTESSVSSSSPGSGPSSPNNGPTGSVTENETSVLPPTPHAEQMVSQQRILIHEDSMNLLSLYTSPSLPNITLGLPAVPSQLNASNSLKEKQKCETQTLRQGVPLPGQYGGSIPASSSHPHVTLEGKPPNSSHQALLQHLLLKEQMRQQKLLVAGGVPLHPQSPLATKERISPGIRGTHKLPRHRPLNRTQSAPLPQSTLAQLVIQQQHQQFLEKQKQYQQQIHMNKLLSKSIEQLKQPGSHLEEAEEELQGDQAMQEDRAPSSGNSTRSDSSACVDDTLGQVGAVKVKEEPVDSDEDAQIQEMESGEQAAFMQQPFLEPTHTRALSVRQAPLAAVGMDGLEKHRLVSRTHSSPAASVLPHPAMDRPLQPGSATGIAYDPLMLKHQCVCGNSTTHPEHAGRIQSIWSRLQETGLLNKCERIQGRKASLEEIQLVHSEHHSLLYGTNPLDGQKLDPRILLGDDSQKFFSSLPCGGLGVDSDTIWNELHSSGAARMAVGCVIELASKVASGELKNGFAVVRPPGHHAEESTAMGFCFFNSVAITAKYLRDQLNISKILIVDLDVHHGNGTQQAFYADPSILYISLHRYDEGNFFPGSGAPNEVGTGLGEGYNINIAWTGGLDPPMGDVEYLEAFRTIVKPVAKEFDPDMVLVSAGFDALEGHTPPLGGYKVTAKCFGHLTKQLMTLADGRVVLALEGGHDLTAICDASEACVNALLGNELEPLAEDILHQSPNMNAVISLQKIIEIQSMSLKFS

SMILES	inhibition at 1 µM [1] [%]	inhibition at 1 µM [2] [%]	inhibition at 1 µM [3] [%]	HDAC1 inhibitory rate (%) (1 μM) ([2]; 1 µM)
CN1CCC[C@H]1C(=O)N[C@@H]1CCCC[C@H]1N1Cc2ccc(-c3noc(C(F)(F)F)n3)cc2C1=O [Example 104, 1-methyl-N-((1R,2R)-2-(1-oxo-6-(5-(trifluoromethyl)-1,2,4-oxadiazol-3-yl)-1,3-dihydro-2H-isoindol-2-yl)cyclohexyl)-L-prolinamide]	98	3	43	
O=C(N[C@@H]1CCCC[C@H]1N1Cc2ccc(-c3noc(C(F)(F)F)n3)cc2C1=O)C1CC1(F)F (stereo partly drawn) [Example 105, 2,2-difluoro-N-((1R,2R)-2-(1-oxo-6-(5-(trifluoromethyl)-1,2,4-oxadiazol-3-yl)-1,3-dihydro-2H-isoindol-2-yl)cyclohexyl) cyclopropanecarboxamide]	100	7	50	
N#Cc1ccccc1C(=O)N[C@@H]1CCCC[C@H]1N1Cc2ccc(-c3noc(C(F)(F)F)n3)cc2C1=O [Example 106, 2-cyano-N-((1R,2R)-2-(1-oxo-6-(5-(trifluoromethyl)-1,2,4-oxadiazol-3-yl)-1,3-dihydro-2H-isoindol-2-yl)cyclohexyl)benzamide]	101	58	88	
CC1(C)CC1C(=O)N[C@@H]1CCCC[C@H]1N1Cc2ccc(-c3noc(C(F)(F)F)n3)cc2C1=O (stereo partly drawn) [Example 107, 2,2-dimethyl-N-((1R,2R)-2-(1-oxo-6-(5-(trifluoromethyl)-1,2,4-oxadiazol-3-yl)-1,3-dihydro-2H-isoindol-2-yl)cyclohexyl) cyclopropanecarboxamide]	99	11	57	
O=C1NCCC1C(=O)N[C@@H]1CCCC[C@H]1N1Cc2ccc(-c3noc(C(F)(F)F)n3)cc2C1=O (stereo partly drawn) [Example 108, 2-oxo-N-((1Rr2R)-2-(1-oxo-6-(5-(trifluoromethyl)-l ,2,4-oxadiazol-3-yl)-1,3-dihydro-2H-isoindol-2-yl)cyclohexyl)pyrrolidine-3-carboxamide]	97	2	35	
O=C1NCC(C(=O)N[C@@H]2CCCC[C@H]2N2Cc3ccc(-c4noc(C(F)(F)F)n4)cc3C2=O)N1 (stereo partly drawn) [Example 109, 2-oxo-N-((1R,2R)-2-(1-oxo-6-(5-(trifluoromethyl)-1,2,4-oxadiazol-3-yl)-1,3-dihydro-2H-isoindol-2-yl)cyclohexyl)imidazolidine-4-carboxamide]	71	-2	19	
Cn1cncc1C(=O)N[C@@H]1CCCC[C@H]1N1Cc2ccc(-c3noc(C(F)(F)F)n3)cc2C1=O [Example 110, 1-methyl-N-((1R,2R)-2-(1-oxo-6-(5-(trifluoromethyl)-1,2,4-oxadiazol-3-yl)-1,3-dihydro-2H-isoindol-2-yl)cyclohexyl)-1H-imidazole-5-carboxamide]	99	18	73	
CC1(C(=O)N[C@@H]2CCCC[C@H]2N2Cc3ccc(-c4noc(C(F)(F)F)n4)cc3C2=O)CC1(F)F (stereo partly drawn) [Example 111, 2,2-difluoro-1-methyl-N-((1R,2R)-2-(1-oxo-6-(5-(trifluoromethyl)-1,2,4-oxadiazol-3-yl)-1,3-dihydro-2H-isoindol-2-yl)cyclohexyl) cyclopropanecarboxamide]	99	14	69	
Cn1cc(C(=O)N[C@@H]2CCCC[C@H]2N2Cc3ccc(-c4noc(C(F)(F)F)n4)cc3C2=O)cn1 [Example 112, 1-methyl-N-((1R,2R)-2-(1-oxo-6-(5-(trifluoromethyl)-1,2,4-oxadiazol-3-yl)-1,3-dihydro-2H-isoindol-2-yl)cyclohexyl)-1H-pyrazole-4-carboxamide]	96	13	57	
O=C1c2cc(-c3noc(C(F)(F)F)n3)ccc2CN1[C@@H]1CCCC[C@H]1NC(=O)C1(CO)CCOCC1 [Example 113, 4-(hydroxymethyl)-N-((1R,2R)-2-(1-oxo-6-(5-(trifluoromethyl)-1,2,4-oxadiazol-3-yl)-1,3-dihydro-2H-isoindol-2-yl)cyclohexyl)tetrahydro-2H-pyran-4-carboxamide]	97	0	32	
CC(C)(C)N1CC(C(=O)N[C@@H]2CCCC[C@H]2N2Cc3ccc(-c4noc(C(F)(F)F)n4)cc3C2=O)C1 [Example 114, 1-tert-butyl-N-((1R,2R)-2-(1-oxo-6-(5-(trifluoromethyl)-1,2,4-oxadiazol-3-yl)-1,3-dihydro-2H-isoindol-2-yl)cyclohexyl)azetidine-3-carboxamide]	39	1	11	
O=C(N[C@@H]1CCCC[C@H]1N1Cc2ccc(-c3noc(C(F)(F)F)n3)cc2C1=O)c1ccncn1 [Example 115, N-((1R,2R)-2-(1-oxo-6-(5-(trifluoromethyl)-1,2,4-oxadiazol-3-yl)-1,3-dihydro-2H-isoindol-2-yl)cyclohexyl)pyrimidine-4-carboxamide]	99	16	64	
O=C(N[C@@H]1CCCC[C@H]1N1Cc2ccc(-c3noc(C(F)(F)F)n3)cc2C1=O)C1CCOC1 (stereo partly drawn) [Example 116, N-((1R,2R)-2-(1-oxo-6-(5-(trifluoromethyl)-1,2,4-oxadiazol-3-yl)-1,3-dihydro-2H-isoindol-2-yl)cyclohexyl)tetrahydrofuran-3-carboxamide]	98	4	45	
O=C(Cc1cc(=O)[nH][nH]1)N[C@@H]1CCCC[C@H]1N1Cc2ccc(-c3noc(C(F)(F)F)n3)cc2C1=O [Example 117, 2-(5-oxo-2,5-dihydro-1H-pyrazol-3-yl)-N-((1R,2R)-2-(1-oxo-6-(5-(trifluoromethyl)-1,2,4-oxadiazol-3-yl)-1,3-dihydro-2H-isoindol-2-yl)cyclohexyl)acetamide]	97	4	27	
O=C1CCC(C(=O)N[C@@H]2CCCC[C@H]2N2Cc3ccc(-c4noc(C(F)(F)F)n4)cc3C2=O)=NN1 [Example 118, 6-oxo-N-((1R,2R)-2-(1-oxo-6-(5-(trifluoromethyl)-1,2,4-oxadiazol-3-yl)-1,3-dihydro-2H-isoindol-2-yl)cyclohexyl)-1,4,5,6-tetrahydropyridazine-3-carboxamide]	98	5	46	
O=C(N[C@@H]1CCCC[C@H]1N1Cc2ccc(-c3noc(C(F)(F)F)n3)cc2C1=O)C1CCCCCO1 (stereo partly drawn) [Example 119, N-((1R,2R)-2-(1-oxo-6-(5-(trifluoromethyl)-1,2,4-oxadiazol-3-yl)-1,3-dihydro-2H-isoindol-2-yl)cyclohexyl)oxepane-2-carboxamide]	100		38	4
CN1CC(C(=O)N[C@@H]2CCCC[C@H]2N2Cc3ccc(-c4noc(C(F)(F)F)n4)cc3C2=O)CC1=O (stereo partly drawn) [Example 120, 1-methyl-5-oxo-N-((1R,2R)-2-(1-oxo-6-(5-(trifluoromethyl)-1,2,4-oxadiazol-3-yl)-1,3-dihydro-2H-isoindol-2-yl)cyclohexyl)pyrrolidine-3-carboxamide]	79	-3	37	
